Source: PubChem BioAssay AID200 (DTP/NCI, 2004)
Several values for one entry are separate records, joined by “and”; a condition that tells them apart may be missing. Equal values may be shown once. Toxic doses and inconclusive results are not listed. Rule for the calls: active = survival T/C of 150% or more; inactive = T/C below 125% in these data. Where a SMILES comes first, the peptide text is derived from it.

System: B6C3F1 mice, B16 melanoma ip, median survival T/C
Assay: NCI In Vivo Anticancer Drug Screen. Data for tumor model B16 Melanoma (intraperitoneal) in B6C3F1 mice
Conditions: endpoint: median survival time, higher = longer survival
Procedure, shortened: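 Transplantable tumor in mice; treated vs vehicle control groups; survival or tumor size measured; value = T/C ratio.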

[1] = dose: 100.0 mg/kg/injection, schedule: Q01DX009 (ip), vehicle: Klucel (hydroxypropylcellulose) (HPC)
[2] = dose: 200.0 mg/kg/injection, schedule: Q01DX009 (ip), vehicle: Klucel (hydroxypropylcellulose) (HPC)
[3] = dose: 25.0 mg/kg/injection, schedule: Q01DX009 (ip), vehicle: saline with Tween-80
[4] = dose: 50.0 mg/kg/injection, schedule: Q01DX009 (ip), vehicle: saline with Tween-80
[5] = dose: 1.56 mg/kg/injection, schedule: Q01DX009 (ip), vehicle: saline with Tween-80
[6] = dose: 3.12 mg/kg/injection, schedule: Q01DX009 (ip), vehicle: saline with Tween-80
[7] = dose: 6.25 mg/kg/injection, schedule: Q01DX009 (ip), vehicle: saline with Tween-80
[8] = dose: 12.5 mg/kg/injection, schedule: Q01DX009 (ip), vehicle: saline with Tween-80
[9] = dose: 6.25 mg/kg/injection, schedule: Q01DX009 (ip), vehicle: saline
[10] = dose: 12.5 mg/kg/injection, schedule: Q01DX009 (ip), vehicle: saline
[11] = dose: 25.0 mg/kg/injection, schedule: Q01DX009 (ip), vehicle: saline
[12] = dose: 50.0 mg/kg/injection, schedule: Q01DX009 (ip), vehicle: saline
[13] = dose: 1.5 mg/kg/injection, schedule: Q01DX009 (ip), vehicle: saline
[14] = dose: 3.0 mg/kg/injection, schedule: Q01DX009 (ip), vehicle: saline
[15] = dose: 6.0 mg/kg/injection, schedule: Q01DX009 (ip), vehicle: saline
[16] = dose: 100.0 mg/kg/injection, schedule: Q01DX009 (ip), vehicle: saline with Tween-80
[17] = dose: 200.0 mg/kg/injection, schedule: Q01DX009 (ip), vehicle: saline with Tween-80

Measured: T/C

Cc1nc2ccccc2c(C(=O)NO)[n+]1[O-]
inactive: dose: 3.13 micrograms/kg/injection, schedule: Q01DX009 (ip), vehicle: other 100 % of control | dose: 6.25 micrograms/kg/injection, schedule: Q01DX009 (ip), vehicle: other 104 % of control | dose: 12.5 micrograms/kg/injection, schedule: Q01DX009 (ip), vehicle: other 122 % of control | dose: 25.0 micrograms/kg/injection, schedule: Q01DX009 (ip), vehicle: other 110 % of control

Oc1c(Cl)cc(Cl)cc1C1N2CCCCC2C2c3cccn3-c3ccccc3N21 (stereo not drawn)
inactive: dose: 12.5 mg/kg/injection, schedule: Q01DX009 (ip), vehicle: Klucel (hydroxypropylcellulose) (HPC) 101 % of control | dose: 25.0 mg/kg/injection, schedule: Q01DX009 (ip), vehicle: Klucel (hydroxypropylcellulose) (HPC) 98 % of control | dose: 50.0 mg/kg/injection, schedule: Q01DX009 (ip), vehicle: Klucel (hydroxypropylcellulose) (HPC) 104 % of control | [1] 98 % of control | [2] 87 % of control

CC(C)(C)C(=O)CC(=O)C(F)(F)C(F)(F)C(F)(F)F.CC(C)(C)C(=O)CC(=O)C(F)(F)C(F)(F)C(F)(F)F.CC(C)(C)C(=O)CC(=O)C(F)(F)C(F)(F)C(F)(F)F.[Er]
inactive: dose: 12.5 mg/kg/injection, schedule: Q01DX009 (ip), vehicle: saline + alcohol 105 % of control | dose: 25.0 mg/kg/injection, schedule: Q01DX009 (ip), vehicle: saline + alcohol 118 % of control | dose: 50.0 mg/kg/injection, schedule: Q01DX009 (ip), vehicle: saline + alcohol 109 % of control | dose: 100.0 mg/kg/injection, schedule: Q01DX009 (ip), vehicle: saline + alcohol 111 % of control

Nc1ncnc2c1ncn2C1OC(CO)CC1O (stereo not drawn)
inactive: dose: 37.5 mg/kg/injection, schedule: Q01DX009 (ip), vehicle: Klucel (hydroxypropylcellulose) (HPC) 121 % of control | dose: 75.0 mg/kg/injection, schedule: Q01DX009 (ip), vehicle: Klucel (hydroxypropylcellulose) (HPC) 123 % of control

ClCc1ccc2ccccc2n1
inactive: [3] 107 % of control | [4] 102 % of control

ClC1=C(Cl)C2(Cl)C3C(Cl)C(Cl)CC3C1(Cl)C2(Cl)Cl (stereo not drawn)
inactive: [5] 106 % of control | [6] 98 % of control | [7] 101 % of control | [8] 97 % of control | dose: 25.0 mg/kg/injection, schedule: Q01DX009 (ip), vehicle: other 95 % of control | [3] 87 % of control | dose: 50.0 mg/kg/injection, schedule: Q01DX009 (ip), vehicle: other 106 % of control | dose: 100.0 mg/kg/injection, schedule: Q01DX009 (ip), vehicle: other 97 % of control

O=C1C(CO)=C[C@@H](O)[C@H]2O[C@@H]12
inactive: dose: 3.12 mg/kg/injection, schedule: Q01DX009 (ip), vehicle: saline 88 % of control | [9] 98 % of control | [10] 100 % of control | [11] 96 % of control | [12] 106 % of control

ClCC[Se](Cl)(Cl)c1ccccc1
inactive: [13] 102 % of control | dose: 1.56 mg/kg/injection, schedule: Q01DX009 (ip), vehicle: saline 113 % of control | [14] 116 % of control | [15] 108 % of control

CCCCCCCCCCCCN1C(C)=CS/C1=C\C=C\c1scc(C)[n+]1CCCCCCCCCCCC
inactive: dose: 0.78 mg/kg/injection, schedule: Q01DX009 (ip), vehicle: saline with Tween-80 99 % of control and 108 % of control | [5] 99 % of control and 105 % of control | [6] 108 % of control

NNc1nncc2ccccc12
inactive: [10] 93 % of control | [11] 98 % of control | [12] 93 % of control

Cc1c(NS(=O)(=O)c2ccccc2)c(C)c(NS(=O)(=O)c2ccccc2)c(C)c1NS(=O)(=O)c1ccccc1
inactive: [8] 97 % of control | [3] 100 % of control | [4] 94 % of control

Oc1ccc(CCl)c2cccnc12
inactive: dose: 12.0 mg/kg/injection, schedule: Q01DX009 (ip), vehicle: saline 102 % of control | [10] 100 % of control

Nc1ncnc2c1ncn2C1OC(COP(=O)(O)OC2C(O)C(COP(=O)(O)OC3C(O)C(COP(=O)(O)OP(=O)(O)OP(=O)(O)O)OC3n3cnc4c(N)ncnc43)OC2n2cnc3c(N)ncnc32)C(O)C1O (stereo not drawn)
inactive: dose: 0.12 mg/kg/injection, schedule: Q01DX009 (ip), vehicle: distilled water + Tween-80 + alcohol 88 % of control | dose: 0.25 mg/kg/injection, schedule: Q01DX009 (ip), vehicle: distilled water + Tween-80 + alcohol 91 % of control | dose: 0.5 mg/kg/injection, schedule: Q01DX009 (ip), vehicle: distilled water + Tween-80 + alcohol 94 % of control | dose: 1.0 mg/kg/injection, schedule: Q01DX009 (ip), vehicle: distilled water + Tween-80 + alcohol 98 % of control

O=C(O)CCC(NC(=O)c1ccccc1)C(=O)O (stereo not drawn)
inactive: [4] 93 % of control | [16] 106 % of control

CCN(CC)CCCC(C)Nc1c2ccc(Cl)cc2nc2ccc(OC)cc12 (stereo not drawn)
inactive: dose: 3.75 mg/kg/injection, schedule: Q01DX009 (ip), vehicle: Klucel (hydroxypropylcellulose) (HPC) 102 % of control | dose: 7.5 mg/kg/injection, schedule: Q01DX009 (ip), vehicle: Klucel (hydroxypropylcellulose) (HPC) 98 % of control | dose: 15.0 mg/kg/injection, schedule: Q01DX009 (ip), vehicle: Klucel (hydroxypropylcellulose) (HPC) 109 % of control | dose: 30.0 mg/kg/injection, schedule: Q01DX009 (ip), vehicle: Klucel (hydroxypropylcellulose) (HPC) 121 % of control

N#CC(=C1C=CC(=NO)C=C1)c1ccc(Cl)cc1
inactive: [7] 101 % of control | [8] 105 % of control | [3] 99 % of control | [4] 99 % of control | [16] 98 % of control | [17] 97 % of control

CCCC(NC)C(CC)CN (stereo not drawn)
inactive: [10] 93 % of control | [11] 100 % of control | [12] 110 % of control | dose: 100.0 mg/kg/injection, schedule: Q01DX009 (ip), vehicle: saline 105 % of control

Cn1c2nc(=O)n(-c3ccccc3)c(=O)c-2nc2c1CCCC2
inactive: dose: 6.25 mg/kg/injection, schedule: Q01DX008 (ip), vehicle: saline with Tween-80 96 % of control | [7] 119 % of control | dose: 12.5 mg/kg/injection, schedule: Q01DX008 (ip), vehicle: saline with Tween-80 104 % of control | [8] 107 % of control | dose: 25.0 mg/kg/injection, schedule: Q01DX008 (ip), vehicle: saline with Tween-80 101 % of control | [3] 107 % of control | dose: 50.0 mg/kg/injection, schedule: Q01DX008 (ip), vehicle: saline with Tween-80 98 % of control | [4] 101 % of control | [16] 101 % of control and 102 % of control | [17] 96 % of control and 97 % of control

CC(C)CC(NC(=O)CNC(=O)C(CC(C)C)NC(=O)CN)C(=O)O (stereo not drawn) (H-GLGL-OH; configuration not given here)
inactive: [1] 120 % of control | [2] 118 % of control | dose: 400.0 mg/kg/injection, schedule: Q01DX009 (ip), vehicle: Klucel (hydroxypropylcellulose) (HPC) 122 % of control

CC1=C(C)C(=O)O[C@@H]([C@](C)(O)[C@]2(O)CC[C@@]3(O)[C@@H]4C[C@H]5O[C@]56CC=CC(=O)[C@]6(C)[C@H]4CC[C@]23C)C1
active: [10] 153 % of control | [11] 175 % of control
inactive: [5] 121 % of control | [6] 108 % of control | [7] 120 % of control | [9] 120 % of control | [8] 88 % of control

NC(=O)CC(N)C(=O)O (stereo not drawn)
inactive: [4] 108 % of control | [16] 100 % of control | [17] 100 % of control | dose: 400.0 mg/kg/injection, schedule: Q01DX009 (ip), vehicle: saline with Tween-80 105 % of control | dose: 800.0 mg/kg/injection, schedule: Q01DX009 (ip), vehicle: saline with Tween-80 120 % of control | dose: 1600.0 mg/kg/injection, schedule: Q01DX009 (ip), vehicle: saline with Tween-80 118 % of control

CCCCCCCCCCCCCCCCCC(=O)OCC(=O)OCC(=O)[C@]1(O)Cc2c(O)c3c(c(O)c2[C@@H](OC2CC(N)C(O)C(C)O2)C1)C(=O)c1c(OC)cccc1C3=O (stereo partly drawn)
active: dose: 0.75 mg/kg/injection, schedule: Q01DX009 (ip), vehicle: saline 160 % of control and 211 % of control | [13] 208 % of control and 333 % of control | [14] 255 % of control and 333 % of control | [15] 238 % of control and 333 % of control

C[n+]1c(-c2cccc(OCCOCCOc3cccc(-c4c5cc(N)ccc5c5ccc(N)cc5[n+]4C)c3)c2)c2cc(N)ccc2c2ccc(N)cc21
inactive: dose: 0.25 mg/kg/injection, schedule: Q01DX009 (ip), vehicle: distilled water + Tween-80 99 % of control | dose: 0.5 mg/kg/injection, schedule: Q01DX009 (ip), vehicle: distilled water + Tween-80 107 % of control | dose: 1.0 mg/kg/injection, schedule: Q01DX009 (ip), vehicle: distilled water + Tween-80 117 % of control
